The values below come from patent US10450263B2, “Benzo annulenes as antiviral agents” (Southern Research Institute, priority 2017, dated 2019).

Read-outs that look alike come from different tables or passages of the source.

For orientation: CC50 means the concentration that lowers cell viability or growth by half. Higher therefore signals lower toxicity to the cells.

One data set deals with Chikungunya virus. The experiment in a line: Evaluation of antiviral activity against Chikungunya virus (EC90). Type of data set: cell-based. The source says:
EC90 refers to the concentration of the compound that is required for 90% antagonism or inhibition of CHIKV. EC90 also refers to the concentration of a substance that is required for 90% antagonism or inhibition of CHIKV in vivo.
(§1) The compounds below in Table 1 were synthesized with methods identical or analogous to those described herein. The requisite starting materials were commercially available, described in the literature, or readily synthesized by one skilled in the art of organic synthesis.

Data set [1] is described as follows: CC50 reported alongside the CHIKV antiviral assay (cytotoxicity). The format is cell-based. Conditions: cell line not given.
Description: as §1

[2] abbreviates: Chikungunya virus, read-out: EC90 (μM) CHIKV, concentration required for 90% inhibition of CHIKV.

As for `COc1cc2c(cc1NC(=O)C13C[C@H]4C[C@@H](C1)C[C@@H](C3)C4)CCCCC2` [Compound 42, (3r,5r,7r)-N-(3-methoxy-6,7,8,9-tetrahydro-5H-benzo[7]annulen-2-yl)adamantane-1-carboxamide], the EC90 in the data set with Chikungunya virus (setting [2]) is 12.1 µM. Moreover, in data set [1], the CC50 is greater than 30 µM.

On to `COc1cc2c(cc1N1Cc3ccc(C(C)(C)C)cc3C1=O)CCCCC2` [Compound 59, 6-(tert-Butyl)-2-(3-methoxy-6,7,8,9-tetrahydro-5H-benzo[7]annulen-2-yl)isoindolin-1-ONE], for which the EC90 in the data set with Chikungunya virus (setting [2]) is greater than 10 µM. The molecule further registered a CC50 in data set [1] greater than 30 µM.

As to `COc1cc2c(cc1NC(=O)c1ccc(Cl)cc1)CCCCC2` [Compound 71, 4-Chloro-N-(3-methoxy-6,7,8,9-tetrahydro-5H-benzo[7]annulen-2-yl)benzamide], the EC90 with Chikungunya virus (setting [2]) was determined as 6.4 µM. Further, the CC50 in data set [1] is greater than 30 µM.

On to `COc1cc2c(cc1NC(=O)c1c[nH]nc1C)CCCCC2` [Compound 69, N-(3-methoxy-6,7,8,9-tetrahydro-5H-benzo[7]annulen-2-yl)-3-methyl-1H-pyrazole-4-carboxamide], for which the EC90 in the data set on Chikungunya virus (setting [2]) is 3.1 µM. The molecule further returned a 50% cytotoxic concentration (CC50) in data set [1] greater than 30 µM.

In the case of `CC(C)(C)c1ccc(C(=O)Nc2cc3c(cc2C#N)CCCCC3)cc1` [Compound 12, 4-(tert-Butyl)-N-(3-cyano-6,7,8,9-tetrahydro-5H-benzo[7]annulen-2-yl)benzamide], in the data set on Chikungunya virus (setting [2]), the EC90 was determined as 4.4 µM. Also, the 50% cytotoxic concentration (CC50) in data set [1] came out at 17 µM.

Consider `COc1cc2c(cc1NC(=O)c1cc(-c3ccccc3)on1)CCCCC2` [Compound 36, N-(3-methoxy-6,7,8,9-tetrahydro-5H-benzo[7]annulen-2-yl)-5-phenylisoxazole-3-carboxamide], for which the EC90 in the data set on Chikungunya virus (setting [2]) is 9 µM. The molecule also displayed a CC50 in data set [1] greater than 30 µM.

In the case of `CC(C)(C)c1ccc(C(=O)Nc2cc3c(cc2[N+](=O)[O-])CCCCC3)cc1` [Compound 22, 4-(tert-butyl)-N-(3-nitro-6,7,8,9-tetrahydro-5H-benzo[7]annulen-2-yl)benzamide], the EC90 with Chikungunya virus (setting [2]) is greater than 30 µM. The CC50 in data set [1] was greater than 30 µM.

For the molecule `COc1cc2c(cc1N1Cc3cc(C(C)(C)C)ccc3C1=O)CCCCC2` [Compound 60, 5-(tert-Butyl)-2-(3-methoxy-6,7,8,9-tetrahydro-5H-benzo[7]annulen-2-yl)isoindolin-1-one], the EC90 in the data set with Chikungunya virus (setting [2]) was greater than 10 µM. For the same molecule, in data set [1], the CC50 is greater than 30 µM.

Turning to `COc1cc2c(cc1NC(=O)c1cn(C)cn1)CCCCC2` [Compound 32, N-(3-methoxy-6,7,8,9-tetrahydro-5H-benzo[7]annulen-2-yl)-1-methyl-1H-imidazole-4-carboxamide], in the data set on Chikungunya virus (setting [2]), the EC90 is 55.6 µM. In data set [1], the CC50 is greater than 30 µM.

In the case of `COc1cc2c(cc1NC(=O)c1ccc(C(C)(C)C)cc1)CCCCN2` [Compound 64, 4-(tert-butyl)-N-(8-methoxy-2,3,4,5-tetrahydro-1H-benzo[b]azepin-7-yl)benzamide], the EC90 in the data set on Chikungunya virus (setting [2]) stood at 3.3 µM. The same molecule registered a CC50 in data set [1] greater than 30 µM.

For the molecule `COc1c(NC(=O)c2ccc(C(C)(C)C)cc2)cc2c(c1F)CCCCC2` [Compound 23, 4-(tert-butyl)-N-(4-fluoro-3-methoxy-6,7,8,9-tetrahydro-5H-benzo[7]annulen-2-yl)benzamide], in the data set with Chikungunya virus (setting [2]), the EC90 is 12.5 µM. In data set [1], this molecule registered a 50% cytotoxic concentration (CC50) greater than 30 µM.

For the molecule `COc1cc2c(cc1NC(=O)c1ccc3nonc3c1)CCCCC2` [Compound 40, N-(3-Methoxy-6,7,8,9-tetrahydro-5H-benzo[7]annulen-2-yl)benzo[c][1,2,5]oxadiazole-5-carboxamide], the EC90 in the data set on Chikungunya virus (setting [2]) was greater than 30 µM. Besides, the 50% cytotoxic concentration (CC50) in data set [1] was greater than 30 µM.

For the molecule `COc1cc2c(cc1NC(=O)c1cc(C(C)(C)C)c(O)c(C(C)(C)C)c1)CCCCC2` [Compound 70, 3,5-Di-tert-butyl-4-hydroxy-N-(3-methoxy-6,7,8,9-tetrahydro-5H-benzo[7]annulen-2-yl)benzamide], in the data set with Chikungunya virus (setting [2]), the EC90 is 44.8 µM. Besides, the half-maximal cytotoxic concentration (CC50) in data set [1] was greater than 30 µM.

Take `COc1cc2c(cc1NC(=O)c1cnc(C(C)(C)C)s1)CCCCC2` [Compound 44, 2-(tert-Butyl)-N-(3-methoxy-6,7,8,9-tetrahydro-5H-benzo[7]annulen-2-yl)thiazole-5-carboxamide]: the EC90 in the data set with Chikungunya virus (setting [2]) was 1.2 µM. In data set [1], this molecule registered a 50% cytotoxic concentration (CC50) greater than 30 µM.

As for “3,5-Difluoro-N-(3-methoxy-6,7,8,9-tetrahydro-5H-benzo[7]annulen-2-yl)picolinamide [Compound 77]”, the EC90 with Chikungunya virus (concentration required for 90% inhibition of CHIKV, read-out: EC90 (μM) CHIKV) stood at 2.9 µM. The molecule also had a cytotoxic concentration (CC50) in data set [1] greater than 30 µM.

In the case of `COc1cc2c(cc1NC(=O)c1cc(C)n(C(C)(C)C)n1)CCCCC2` [Compound 61], in the data set with Chikungunya virus (setting [2]), the EC90 amounted to 5.64 µM. In data set [1], this molecule showed a CC50 greater than 30 µM.

Turning to `COc1cc2c(cc1NC(=O)c1ccc(C3CC3)cc1)CCCCC2` [Compound 80, 4-Cyclopropyl-N-(3-methoxy-6,7,8,9-tetrahydro-5H-benzo[7]annulen-2-yl)benzamide], in the data set with Chikungunya virus (setting [2]), the EC90 was 12.3 µM. The cytotoxic concentration (CC50) in data set [1] is greater than 30 µM.

With `COc1cc2c(cc1NC(=O)c1ccc(C(O)(C(F)(F)F)C(F)(F)F)cc1)CCCCC2` [Compound 48, 4-(1,1,1,3,3,3-Hexafluoro-2-hydroxypropan-2-yl)-N-(3-methoxy-6,7,8,9-tetrahydro-5H-benzo[7]annulen-2-yl)benzamide], the EC90 with Chikungunya virus (setting [2]) was 2.8 µM. Moreover, the 50% cytotoxic concentration (CC50) in data set [1] was determined as 28.9 µM.

Consider `COc1cc2c(cc1NC(=O)c1ccc(C(C)(C)C(F)(F)F)cc1)CCCCC2` [Compound 52, N-(3-methoxy-6,7,8,9-tetrahydro-5H-benzo[7]annulen-2-yl)-4-(1,1,1-trifluoro-2-methylpropan-2-yl)benzamide], for which the EC90 in the data set on Chikungunya virus (setting [2]) was found to be 3.47 µM. In data set [1], this molecule registered a CC50 of 19.1 µM.

As to `CC(=O)Oc1cc2c(cc1NC(=O)c1ccc(C(C)(C)C)cc1)CCCCC2` [Compound 16, 3-(4-(tert-Butyl)benzamido)-6,7,8,9-tetrahydro-5H-benzo[7]annulen-2-yl acetate], the EC90 in the data set with Chikungunya virus (setting [2]) was determined as 2.8 µM. The same molecule gave a CC50 in data set [1] greater than 30 µM.

Take `COc1cc2c(cc1NC(=O)c1ccccc1)CCCCC2` [Compound 83, N-(3-methoxy-6,7,8,9-tetrahydro-5H-benzo[7]annulen-2-yl)benzamide]: the EC90 in the data set on Chikungunya virus (setting [2]) was greater than 10 µM. The molecule further showed a CC50 in data set [1] greater than 30 µM.

As for `CC(C)(C)c1ccc(C(=O)Nc2cc3c(cc2O)CCCCC3)cc1` [Compound 15, 4-(tert-butyl)-N-(3-hydroxy-6,7,8,9-tetrahydro-5H-benzo[7]annulen-2-yl)benzamide], the EC90 in the data set on Chikungunya virus (setting [2]) is 0.4 µM. Further, in data set [1], the cytotoxic concentration (CC50) was greater than 30 µM.

Regarding `COc1cc2c(cc1NC(=O)c1cc(F)c(C(C)(C)C)c(F)c1)CCCCC2` [Compound 90, 4-(tert-butyl)-3,5-difluoro-N-(3-methoxy-6,7,8,9-tetrahydro-5H-benzo[7]annulen-2-yl)benzamide], in the data set with Chikungunya virus (setting [2]), the EC90 stood at 3.3 µM. This molecule also had a half-maximal cytotoxic concentration (CC50) in data set [1] greater than 30 µM.

For `CC(C)(C)c1ccc(C(=O)Nc2cc3c(cc2CO)CCCCC3)cc1` [Compound 29], in the data set with Chikungunya virus (setting [2]), the EC90 is greater than 10 µM. Also, in data set [1], the CC50 is greater than 30 µM.

Regarding `COc1cc2c(cc1NC(=O)c1ccc(C(C)(C)C)s1)CCCCC2` [Compound 38, 5-(tert-Butyl)-N-(3-methoxy-6,7,8,9-tetrahydro-5H-benzo[7]annulen-2-yl)thiophene-2-carboxamide], in the data set with Chikungunya virus (setting [2]), the EC90 came out at 3.1 µM. For the same molecule, in data set [1], the CC50 stood at 32 µM.

`CC(C)(C)c1ccc(C(=O)Nc2cc3c(cc2OCc2ccccn2)CCCCC3)cc1` [Compound 85, 4-(tert-Butyl)-N-(3-(pyridin-2-ylmethoxy)-6,7,8,9-tetrahydro-5H-benzo[7]annulen-2-yl)benzamide]: the EC90 in the data set on Chikungunya virus (setting [2]) was greater than 10 µM. The molecule also gave a half-maximal cytotoxic concentration (CC50) in data set [1] of 9.4 µM.

Consider `COc1cc2c(cc1NC(=O)c1oc3ccccc3c1C)CCCCC2` [Compound 79, N-(3-methoxy-6,7,8,9-tetrahydro-5H-benzo[7]annulen-2-yl)-3-methylbenzofuran-2-carboxamide], for which the EC90 in the data set with Chikungunya virus (setting [2]) was greater than 10 µM. The CC50 in data set [1] is greater than 30 µM.

As to `CCn1nc(C(=O)Nc2ccc3c(c2)CCCCC3)cc1C` [Compound 26, 1-ethyl-5-methyl-N-(6,7,8,9-tetrahydro-5H-benzo[7]annulen-2-yl)-1H-pyrazole-3-carboxamide], the EC90 in the data set on Chikungunya virus (setting [2]) was greater than 30 µM. Moreover, the half-maximal cytotoxic concentration (CC50) in data set [1] was greater than 30 µM.

On to `COc1cc2c(cc1NC(=O)c1ccc(C(C)(C)C)cc1)CCCC(=O)N2C(C)C` [Compound 63, 4-(tert-butyl)-N-(1-isopropyl-8-methoxy-2-oxo-2,3,4,5-tetrahydro-1H-benzo[b]azepin-7-yl)benzamide], for which the EC90 with Chikungunya virus (setting [2]) is greater than 30 µM. In data set [1], this molecule returned a CC50 greater than 30 µM.

`CC(C)(C)c1ccc(C(=O)Nc2ccc3c(c2OC(F)(F)F)CCCCC3)cc1` [Compound 87, 4-(tert-butyl)-N-(1-(trifluoromethoxy)-6,7,8,9-tetrahydro-5H-benzo[7]annulen-2-yl)benzamide]: the EC90 in the data set with Chikungunya virus (setting [2]) is 19.5 µM. For the same molecule, the CC50 in data set [1] is greater than 30 µM.

Take `COc1cc2c(cc1NC(=O)Cc1cccs1)CCCCC2` [Compound 73, N-(3-Methoxy-6,7,8,9-tetrahydro-5H-benzo[7]annulen-2-yl)-2-(thiophen-2-yl)acetamide]: the EC90 in the data set with Chikungunya virus (setting [2]) was 18.7 µM. In data set [1], this molecule yielded a CC50 greater than 30 µM.

In the case of `COc1cc2c(cc1NC(=O)c1ccc(C3(C(F)(F)F)CC3)cc1)CCCCC2` [Compound 51, N-(3-methoxy-6,7,8,9-tetrahydro-5H-benzo[7]annulen-2-yl)-4-(1-(trifluoromethyl)cyclopropyl)benzamide], in the data set on Chikungunya virus (setting [2]), the EC90 is 1.3 µM. In data set [1], the CC50 is greater than 30 µM.

For the molecule `COc1cc2c(cc1NC(=O)c1ccc(C(C)(C)O)cc1)CCCCC2` [Compound 46, 4-(2-Hydroxypropan-2-yl)-N-(3-methoxy-6,7,8,9-Tetrahydro-5H-benzo[7]annulen-2-yl)benzamide], in the data set with Chikungunya virus (setting [2]), the EC90 came to 2.45 µM. In addition, the half-maximal cytotoxic concentration (CC50) in data set [1] was 79.2 µM.
